Source: patent publication US11974983B2 (Duke University, priority 2018, dated 2024)

Experiments:
[1] = test system: wild-type ERα and ERα LBD mutants Y537S, Y537N, Y537C, D538G; test: ERE-luciferase reporter assay in Caov2 and SKBR3 cells (statements on all receptors); assay type: cell-based
Method: ExSite mutagenesis was performed using the corresponding primers as summarized in Table 1 below on a pENTR2B ERα WT construct using Pfu ultra taq polymerase. The primers were PNK phosphorylated. Following PCR amplification, the products were digested with DpnI at 37° C. for 1 hr, followed by overnight ligation at 16° C. Ligated products were transformed into DH5α bacterial cells and grown on kanamycin resistant plates. The pENTR clones were verified by sequencing and then swapped into the pcDNA-DEST vector using the Gateway system (Invitrogen) for expression analysis.
Caov2 ovarian carcinoma cells were grown in RPMI-1640 media (Gibco) supplemented with 8% Fetal Bovine Serum (FBS), Sodium Pyruvate (NaPyr) and non-essential amino acids (NEAA) and passaged every 2-3 days. SKBR3 breast adenocarcinoma cells were grown in DMEM media (Gibco) supplemented with 8% Fetal Bovine Serum (FBS), Sodium Pyruvate (NaPyr) and non-essential amino acids (NEAA) and passaged every 2-3 days. […]
Caov2 cells were co-transfected with the 7X-TK-ERE-TATA luciferase reporter gene (Nagel et al., Endocrinology 142(11): 4721-4728 (2001)) and expression constructs for either wild-type or mutant receptors using Fugene transfection reagent (Promega). […] Following 24 hours of treatment, cells were lysed and the luciferase and β-gal assays were performed as described previously (Norris et al., J Biol Chem 270(39): 22777-22782 (1995)) and the plates were read on the Fusion α-FP HT plate reader (PerkinElmer Life Sciences).
See Jeselsohn et al., Nature Reviews Clinical Oncology 12(10): 573-583 (2015); Jeselsohn et al., Clinical Cancer Research 20(7): 1757-1767 (2014); Robinson et al., Nature Genetics 45(12): 1446-1451(2013); Thomas and Gustafsson, Trends in Endocrinology and Metabolism 26(9): 467-476 (2015); and Toy et al., Nature Genetics 45(12): 1439-1445 (2013). The activity of these mutants was evaluated in a reconstituted estrogen response element (ERE)-luciferase reporter assay in Caov2 ovarian carcinoma cells and SKBR3 breast adenocarcinoma cells. […]

MCF7 WT [2] = test: Mammary intraductal (MIND) xenograft model, MCF7 WT; assay type: in vivo, NSG mice; details: MCF7 WT mice; fulvestrant 5 mg once per week subcutaneous
Method: (§1) MCF7 cells were engineered with CRISPR/Cas9 to express ERα with Y537S and D538G mutations. To mimic the natural environment of infiltrating ductal ERα^+ breast cancers, NSG™ mice were injected, via the nipple in the inguinal mammary glands, with three MCF7 cell variants: wild type MCF7 cells (MCF7 WT), MCF7 cells expressing Y537S mutant ERα (MCF7 Y537S), and MCF7 cells expressing D538G mutant ERα (MCF7 D538G), respectively. Prior to injection, the MCF7 cells were labeled with a luciferase reporter to monitor tumor growth in vivo using a Xenogen IVIS imager. […] FIG. 4 summarizes the experimental design.

MCF7 Y537S = test: Mammary intraductal (MIND) xenograft model, MCF7 Y537S; assay type: in vivo, NSG mice; details: MCF7 Y537S; fulvestrant 5 mg once per week; after 70 days
Method: as §1

MCF7 WT [3] = test: MIND xenograft model, combination therapies, MCF7 WT; assay type: in vivo, mice
Text: MCF7 WT and MCF7 Y537S MIND xenograft model were generated as described in Example 3. […] FIG. 20 summarizes the experimental design.

Row | Compound | transcriptional activity, response to E2 [1] | tumor growth monitored by total flux (MCF7 WT [2]) | lung metastasis (MCF7 Y537S) | tumor growth monitored by total flux (MCF7 WT [3]; MCF7 WT mice, fulvestrant alone 5 mg/mouse once per week) | tumor growth by tumor volume (MCF7 WT [3]; MCF7 WT, day 36 and day 43 of treatment)
1 | C[C@]12CC[C@@H]3c4ccc(O)cc4CC[C@H]3[C@@H]1CC[C@@H]2O [E2, 17-β estradiol] | not responsive to E2 activation | – | – | – | –
2 | C[C@]12CC[C@@H]3c4ccc(O)cc4C[C@@H](CCCCCCCCC[S+]([O-])CCCC(F)(F)C(F)(F)F)[C@H]3[C@@H]1CC[C@@H]2O (some centres unmarked) [fulvestrant] | – | the most effective in inhibiting tumor growth | did not have a significant effect | the most effective in inhibiting tumor growth | the most effective
